This note sets out measurements from ChEMBL document CHEMBL1125617, “N6-substituted adenosine receptor agonists: potential antihypertensive agents” (J Med Chem, 1991).

Experiment [1] addresses Adenosine receptors; A1 & A2 (Rattus norvegicus) (UniProt P29276+P25099+P30543). The experiment can be described thus: Ratio of Ki values of A1 adenosine and A2 adenosine receptor. Type of experiment: protein assay.
Experiment [2] has as its system Rattus norvegicus. The experiment can be described thus: Antihypertensive activity measured as change in blood pressure for a 10-h after 10 mg/kg oral dose in rat. Type of experiment: functional.
In another experiment the target is T1, Adenosine receptor A1 (Rattus norvegicus, UniProt P25099).
T1 sequence (P25099 whole entry): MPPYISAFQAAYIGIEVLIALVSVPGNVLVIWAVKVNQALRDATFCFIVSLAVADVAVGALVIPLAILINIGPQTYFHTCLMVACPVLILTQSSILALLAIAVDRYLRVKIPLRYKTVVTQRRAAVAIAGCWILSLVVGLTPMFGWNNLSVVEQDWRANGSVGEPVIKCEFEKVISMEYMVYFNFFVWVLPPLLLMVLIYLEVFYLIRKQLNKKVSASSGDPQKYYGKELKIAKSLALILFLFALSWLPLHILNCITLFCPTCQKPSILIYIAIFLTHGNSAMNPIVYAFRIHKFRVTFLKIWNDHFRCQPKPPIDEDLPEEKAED
Description: Binding affinity towards adenosine A1 receptor.

The target of a further experiment is Adenosine A2 receptor (Rattus norvegicus, UniProt P29276+P30543). The experiment can be described thus: Binding affinity towards adenosine A2 receptor. It is filed as protein assay.
The test system of experiment [3] is Rattus norvegicus. Description: Antihypertensive activity measured as change in heart rate was measured for a 10-h after 10 mg/kg oral dose. Type of experiment: functional.
In experiment [4] the test system is Rattus norvegicus. Description: Antihypertensive activity was measured as change in blood pressure for a 10-h after 10 mg/kg oral dose. Type of experiment: functional.

For `CCCOc1cccc2c1CCCC2Nc1ncnc2c1ncn2[C@@H]1O[C@H](CO)[C@@H](O)[C@H]1O` (stereo not given in full), the Ratio in experiment [1] was 4. Also, the Change with Rattus norvegicus [2] was -27%; in the experiment on Rattus norvegicus [3], 16%. For the same compound, the Ki at Adenosine receptor A1 turned out to be 81.1 nM; on Adenosine A2 receptor, 327 nM.
Consider `OC[C@H]1OC(n2cnc3c(NCC4=CCc5ccccc54)ncnc32)[C@H](O)[C@@H]1O` (stereo not given in full), for which the Ratio in experiment [1] amounted to 1.36. For the same compound, the Change in the experiment with Rattus norvegicus [2] was -32%; in the experiment with Rattus norvegicus [3], 26%. For the same compound, the Ki on Adenosine receptor A1 was 32.4 nM; at Adenosine A2 receptor, 44.2 nM.
For `CCCCCOc1ccc2c(c1)CCC2Nc1ncnc2c1ncn2[C@@H]1O[C@H](CO)[C@@H](O)[C@H]1O` (stereo not given in full), the Ratio in experiment [1] was found to be 120. The Change in the experiment with Rattus norvegicus [2] is reported as -47%; in the experiment on Rattus norvegicus [3] it was -20%. For the same compound, the Ki on Adenosine receptor A1 was 104 nM; at Adenosine A2 receptor, 12480 nM.
For `OC[C@H]1O[C@@H](n2cnc3c(NCC4=CCCc5ccccc54)ncnc32)[C@H](O)[C@@H]1O`, the Ratio in experiment [1] came to 0.53. Also, the Change in the experiment on Rattus norvegicus [2] was -39%; in the experiment with Rattus norvegicus [3], 16%. Further, the values for the Ki at Adenosine receptor A1 and at Adenosine A2 receptor were 99.8 nM and 53.4 nM, respectively.
Consider `OC[C@H]1O[C@@H](n2cnc3c(NC4CCc5cc(Cl)ccc54)ncnc32)[C@H](O)[C@@H]1O` (stereo not given in full), for which, in experiment [1], the Ratio is 44. The Change in the experiment on Rattus norvegicus [2] and with Rattus norvegicus [3] was -24% in each case. Moreover, the Ki at Adenosine receptor A1 came out at 41 nM; at Adenosine A2 receptor, 1808 nM.
For `OC[C@H]1O[C@@H](n2cnc3c(N[C@@H]4CCc5ccccc54)ncnc32)[C@H](O)[C@@H]1O`, the Ratio in experiment [1] was found to be 18.6. Also, the values for the Change with Rattus norvegicus [2] and in the experiment with Rattus norvegicus [3] were -37% and -18%, respectively. In addition, the figures for the Ki at Adenosine receptor A1 and at Adenosine A2 receptor were 22.2 nM and 412 nM, respectively.
As to `OC[C@H]1O[C@@H](n2cnc3c(NC4CCCc5ccccc5C4)ncnc32)[C@H](O)[C@@H]1O` (stereo not given in full), in experiment [1], the Ratio amounted to 48.7. The Change is listed as -22% in the experiment with Rattus norvegicus [2] and -32% in the experiment on Rattus norvegicus [3]. Moreover, the figures for the Ki at Adenosine receptor A1 and at Adenosine A2 receptor were 25.4 nM and 1234 nM, respectively.
`COc1cc2c(c(OC)c1OC)C(Nc1ncnc3c1ncn3[C@@H]1O[C@H](CO)[C@@H](O)[C@H]1O)CC2` (stereo not given in full): the Ratio in experiment [1] was 32.6. Moreover, the Change in the experiment on Rattus norvegicus [2] and in the experiment on Rattus norvegicus [3] was less than 10% each time. Moreover, the results for the Ki on Adenosine receptor A1 and on Adenosine A2 receptor were 1520 nM and 49710 nM, respectively.
For the compound `OC[C@H]1O[C@@H](n2cnc3c(NC4CCCc5ccccc54)ncnc32)[C@H](O)[C@@H]1O` (stereo not given in full), the Ratio in experiment [1] worked out at 9.5. Besides, the Change is -51% with Rattus norvegicus [2] and -24% in the experiment with Rattus norvegicus [3]. Also, the Ki on Adenosine receptor A1 is 33.7 nM; at Adenosine A2 receptor it was 321 nM.
On to `OC[C@H]1O[C@@H](n2cnc3c(N[C@@H]4CCCc5ccccc54)ncnc32)[C@H](O)[C@@H]1O`, for which, in experiment [1], the Ratio amounted to 7.1. Further, the Change with Rattus norvegicus [2] was -57%; with Rattus norvegicus [3], -30%. Moreover, the results for the Ki on Adenosine receptor A1 and at Adenosine A2 receptor were 22.9 nM and 163 nM, respectively.
Turning to `COc1cc2c(cc1OC)CC(Nc1ncnc3c1ncn3[C@@H]1O[C@H](CO)[C@@H](O)[C@H]1O)C2`, the Ratio in experiment [1] worked out at 278. The Change was -17% in the experiment on Rattus norvegicus [2] and -33% in the experiment with Rattus norvegicus [3]. The Ki at Adenosine receptor A1 was found to be 4.98 nM; at Adenosine A2 receptor it was 1383 nM.
For `CCOc1cccc2c1CCCC2Nc1ncnc2c1ncn2[C@@H]1O[C@H](CO)[C@@H](O)[C@H]1O` (stereo not given in full), the Ratio in experiment [1] was found to be 9.6. For the same compound, the Change in the experiment on Rattus norvegicus [4] is -42%; in the experiment on Rattus norvegicus [3] it was less than 10%. Moreover, the inhibition constant (Ki) on Adenosine receptor A1 amounted to 41.2 nM; on Adenosine A2 receptor it was 396 nM.
Take `OC[C@H]1O[C@@H](n2cnc3c(NCC4(O)CCCCc5ccccc54)ncnc32)[C@H](O)[C@@H]1O` (stereo not given in full): the Ratio in experiment [1] was determined as 9.8. Moreover, the figures for the Change in the experiment on Rattus norvegicus [2] and with Rattus norvegicus [3] were -14% and less than 10%, respectively. The Ki on Adenosine receptor A1 was found to be 275 nM; on Adenosine A2 receptor it was 2705 nM.
The corresponding values for `OC[C@H]1O[C@@H](n2cnc3c(NC4CCCc5c(OCc6ccccc6)cccc54)ncnc32)[C@H](O)[C@@H]1O` (stereo not given in full) are 3.7, -14%, 20%, 138 nM and 511 nM.
The corresponding values for `OC[C@H]1O[C@@H](n2cnc3c(NC4CCOc5ccccc54)ncnc32)[C@H](O)[C@@H]1O` (stereo not given in full) are 5.3, -21%, 21%, 63.5 nM and 339 nM.
With `OC[C@H]1O[C@@H](n2cnc3c(N[C@H]4CCCc5ccccc54)ncnc32)[C@H](O)[C@@H]1O`, the Ratio in experiment [1] was 13.3. For the same compound, the Change in the experiment with Rattus norvegicus [2] is -28%; in the experiment on Rattus norvegicus [3] it was less than 10%. In addition, the Ki on Adenosine receptor A1 stood at 299 nM; at Adenosine A2 receptor, 3989 nM.
With `OC[C@H]1O[C@@H](n2cnc3c(NCC4CCc5ccccc54)ncnc32)[C@H](O)[C@@H]1O` (stereo not given in full), the Ratio in experiment [1] was 12.9. Moreover, the values for the Change in the experiment with Rattus norvegicus [2] and in the experiment on Rattus norvegicus [3] were -40% and -15%, respectively. In addition, the Ki was 5.19 nM at Adenosine receptor A1 and 66.7 nM at Adenosine A2 receptor.
As to `OC[C@H]1O[C@@H](n2cnc3c(NC4CCCCc5ccccc54)ncnc32)[C@H](O)[C@@H]1O` (stereo not given in full), the Ratio in experiment [1] was 4.27. The figures for the Change with Rattus norvegicus [2] and in the experiment with Rattus norvegicus [3] were -42% and 28%, respectively. Also, the values for the Ki on Adenosine receptor A1 and at Adenosine A2 receptor were 17.8 nM and 76.9 nM, respectively.
`COc1cccc2c1CCCC2Nc1ncnc2c1ncn2[C@@H]1O[C@H](CO)[C@@H](O)[C@H]1O` (stereo not given in full): the Ratio in experiment [1] stood at 9.2. Also, the results for the Change with Rattus norvegicus [2] and with Rattus norvegicus [3] were -52% and -31%, respectively. Moreover, the Ki at Adenosine receptor A1 is 23.7 nM; on Adenosine A2 receptor, 218 nM.
For the compound `CC(C)Oc1cccc2c1CCCC2Nc1ncnc2c1ncn2[C@@H]1O[C@H](CO)[C@@H](O)[C@H]1O` (stereo not given in full), the Ratio in experiment [1] amounted to 7.3. Also, the Change with Rattus norvegicus [2] is given as -19%; in the experiment with Rattus norvegicus [3], 24%. The Ki was 87.9 nM at Adenosine receptor A1 and 642 nM at Adenosine A2 receptor.
For the compound `OC[C@H]1O[C@@H](n2cnc3c(NC4CCSc5ccccc54)ncnc32)[C@H](O)[C@@H]1O` (stereo not given in full), the Ratio in experiment [1] was 1.83. Moreover, the Change is on record as -23% with Rattus norvegicus [2] and 29% with Rattus norvegicus [3]. Also, the Ki on Adenosine receptor A1 came out at 31.9 nM; on Adenosine A2 receptor it was 58.3 nM.
For `OC[C@H]1O[C@@H](n2cnc3c(NC4COc5ccccc5C4)ncnc32)[C@H](O)[C@@H]1O` (stereo not given in full), the Ratio in experiment [1] amounted to 36.5. In addition, the results for the Change in the experiment on Rattus norvegicus [4] and with Rattus norvegicus [3] were -38% and -33%, respectively. For the same compound, the Ki was found to be 13.6 nM on Adenosine receptor A1 and 496 nM at Adenosine A2 receptor.
Consider `OC[C@H]1O[C@@H](n2cnc3c(NC4CCCc5ccc(OCc6ccccc6)cc54)ncnc32)[C@H](O)[C@@H]1O` (stereo not given in full), for which, in experiment [1], the Ratio was 12.4. Also, the figures for the Change in the experiment on Rattus norvegicus [2] and in the experiment on Rattus norvegicus [3] were -30% and 20%, respectively. Moreover, the results for the Ki at Adenosine receptor A1 and on Adenosine A2 receptor were 7660 nM and 95100 nM, respectively.
The corresponding values for `OC[C@H]1OC(n2cnc3c(NCC4(O)CCCc5ccccc54)ncnc32)[C@H](O)[C@@H]1O` (stereo not given in full) are 31.4, less than 10%, less than 10%, 61.3 nM and 1922 nM.
As for `OC[C@H]1OC(n2cnc3c(NCC4=CCCCc5ccccc54)ncnc32)[C@H](O)[C@@H]1O` (stereo not given in full), in experiment [1], the Ratio came to 4.5. In addition, the Change in the experiment on Rattus norvegicus [2] and in the experiment on Rattus norvegicus [3] was less than 10% throughout. The figures for the Ki at Adenosine receptor A1 and at Adenosine A2 receptor were 404 nM and 1821 nM, respectively.
Turning to `O=[N+]([O-])c1ccc2c(c1)CCC2Nc1ncnc2c1ncn2[C@@H]1O[C@H](CO)[C@@H](O)[C@H]1O` (stereo not given in full), in experiment [1], the Ratio worked out at 87.6. The Change was -14% in the experiment with Rattus norvegicus [2] and less than 10% in the experiment with Rattus norvegicus [3]. Moreover, the Ki on Adenosine receptor A1 is 40.5 nM; at Adenosine A2 receptor, 3548 nM.
Regarding `OC[C@H]1O[C@@H](n2cnc3c(NCC4CCCCc5ccccc54)ncnc32)[C@H](O)[C@@H]1O` (stereo not given in full), the Ratio in experiment [1] was 7.3. For the same compound, the Change in the experiment on Rattus norvegicus [2] and in the experiment with Rattus norvegicus [3] was less than 10% throughout. For the same compound, the Ki came out at 118 nM at Adenosine receptor A1 and 857 nM on Adenosine A2 receptor.
On to `OC[C@H]1O[C@@H](n2cnc3c(NC4CCc5ccccc54)ncnc32)[C@H](O)[C@@H]1O` (stereo not given in full), for which, in experiment [1], the Ratio was determined as 24.5. Also, the Change in the experiment with Rattus norvegicus [2] was -22%; in the experiment with Rattus norvegicus [3] it was less than 10%. Besides, the Ki on Adenosine receptor A1 was 45.8 nM; at Adenosine A2 receptor it was 1120 nM.
For `OC[C@H]1O[C@@H](n2cnc3c(NC4CCCc5c(O)cccc54)ncnc32)[C@H](O)[C@@H]1O` (stereo not given in full), the Ratio in experiment [1] was found to be 8.6. Besides, the Change in the experiment on Rattus norvegicus [2] and in the experiment with Rattus norvegicus [3] was less than 10% each time. Also, the Ki on Adenosine receptor A1 worked out at 20.4 nM; on Adenosine A2 receptor, 175 nM.
Regarding `CC(C)Oc1ccc2c(c1)C(Nc1ncnc3c1ncn3[C@@H]1O[C@H](CO)[C@@H](O)[C@H]1O)CCC2` (stereo not given in full), the Ratio in experiment [1] is 102. In addition, the Change with Rattus norvegicus [2] is recorded as -41%; with Rattus norvegicus [3], 27%. The Ki was found to be 425 nM on Adenosine receptor A1 and 43440 nM at Adenosine A2 receptor.

As usually defined, the Ki is the equilibrium dissociation constant of an inhibitor or competing ligand from its target.
